Test results: patent EP4782433A1, “METHOD FOR PRODUCING ARYLAMIDE DERIVATIVE” (CHUGAI SEIYAKU KABUSHIKI KAISHA, priority 2023, dated 2025)

Legend:
[1] = Solubility of the additive or its sodium salt in a mixed solvent of tetrahydrofuran, acetone, tert-butyl methyl ether and water (supernatant analysed by HPLC); settings: 25 °C, organic solvent or mixture, thermodynamic from solid
physchem = settings: 25 °C, organic solvent or mixture, thermodynamic from solid
[2] = in water at 25°C; cited from earlier work

## Cc1cccc(O)c1 [m-Cresol]
[1]
  solubility: ≥ 50 mM
[1]; Solubility of additive, 25°C, tetrahydrofuran:acetone:tert-butyl methyl ether 8:10:5 by volume, water 3% by mass, stirred for 6 hours or longer
  solubility: ≥ 50 mM

## CC(=O)Nc1ccc(O)cc1 [Acetaminophen]
physchem; Solubility of additive
  solubility: ≥ 70 mM
physchem; Solubility of sodium salt of additive
  solubility: 40 mM
[2]
  pKa: 9.78
